# Reference: patent US7906105B1, “Zinc-activated contrast agents” (Northwestern University, priority 2006, dated 2011)
# pKd: −log10 of the molar value. Entries after “also recorded” stand apart in the source; their conditions may differ.
# Experiments:
# [1] = Testing of further agents for Zn(II) detection/activation (method not described)
# Text: [drawing 1] wherein R═(CH2)n(n=1 or 2).
# [2] = Stability in 0.1 M phosphate buffer (relaxivity, ICP of supernatant); format: physicochemical
# Experimental: Compound 1 was monitored for 24 hours in a 0.1 M phosphate buffer to determine its stability in solution. Due to the low solubility of GdPO4 (Ksp=10^−22.26 mol^2/L^2) any dissociation of gadolinium from Compound 1 will precipitate, causing a subsequent decrease in relaxivity which was not seen. A more accurate measurement of the amount of gadolinium dissociation can be made from centrifuging the samples and collecting aliquots of the supernatant for evaluation of gadolinium concentration via ICP.
# NIH/3T3 cells [3] = assay: Cellular uptake, Gd(III) by ICP-MS; format: cell-based; conditions: 500 μM
# Experimental: (§1) The cell doubling time for NIH/3T3 cells is around 16 hours and one can see over twice as many cells at 24 hours than at 8 hours as one would expect, implying greater than 99% cell viability. B. Compound 1 is taken up at a constant rate for up to 8 hours.
# (§2) Compound 1 was effectively taken up by NIH/3T3 cells at a constant rate for the first 8 hours of treatment. The maximal intracellular concentration of Compound 1 of approximately 10^−14 mol Gd/cell is achieved at 8 hours and maintained up to 24 hours (FIG. 6 B). NIH/3T3 cells were seeded at 10^5 cells per well in 24-well tissue culture plates with Dulbecco's modified Eagle's medium (DMEM) containing 10% bovine calf serum and incubated overnight in a 5% CO2 incubator at 37° C. The media was then changed and Compound 1 added at a concentration of 500 μM. After 2, 4, 8, and 24 hours, cells were washed three times with 1×PBS and exposed to 250 μL of 0.25% trypsin and harvested. Cells were diluted with an equal volume of 0.4% trypan blue and counted on a hemacytometer. For cellular uptake of Compound 1 into cells, cells were incubated with concentrated nitric acid at 70° C. for 3 hours. The dissolved cells were diluted into a 5 ml, solution with 3% nitric acid and 5 ppb of an indium internal standard. The concentration of Gd(III) was then determined using ICP-MS (induction coupled plasma mass spectrometry).
# [4] = T1-weighted phantom MR images with Mg(II); conditions: 4.7 T magnet; 1 mM Compound 1 in HEPES, 1 mM MgCl2
# Experimental: (§3) A. Compound 1 selectivity. Images of a 1 mM solution of Compound 1 in HEPES buffer. (A) HEPES buffer only; (B) Compound 1; (C) Compound 1 with 1 mM ZnCl2; (D) Compound 1 with 1 mM MgCl2; (E) Compound 1 with 1 mM CaCl2. B. Compound 1 sensitivity. Images of a 1 mM solution of Compound 1 in HEPES buffer with varying zinc concentrations. (A) 0 μM Zn; (B) 50 μM Zn; (C) 100 μM Zn; (D) 500 μM Zn; (E) 1 mM Zn. (TR=100.0 ms, TE=14.3 ms, FOV=2.5/2.0 cm, data matrix=256×256. TR=repetition time; TE=echo time; FOV=field of view).
# (§4) To evaluate the effectiveness of Compound 1 as an in vivo probe, the stability of Zn-Compound 1 was investigated. Using the commercially available fluorophore FluoZinTM-1 (Invitrogen), the binding constant of zinc can be determined by a competitive assay. Since the Zn(II)-binding regions of the dye and Compound 1 are identical, similar binding constants are to be expected. […] To confirm there was a measurable difference between zinc concentrations, T1 was measured on these same samples on a 14.1 T magnet and on a 1.4 T magnet.
# [5] = Relaxivity measurements with MgCl2; format: physicochemical; conditions: MgCl2, even at 3-fold excess of the dication
# Experimental: (§5) Left: Relaxivity of Compound 1 in the presence of XCl2, where X=Zn, Ca, and Mg. All solutions were made in 100 mM KCl/100 mM HEPES at ph=7.4. Right: Relaxivity of Zn-1, 3:1 (Zn:Gd), following titration of EDTA.
# (§6) To test the binding ability of the acetate ligands to Zn(II), relaxivity measurements of 1 were measured in the absence and presence of ZnCl2. The relaxitivity of 1 in HEPES buffer without zinc was 2.34 mM^−1 s^−1, as is typical for small molecule contrast agents for which q=0 (8). […] As ZnCl2 was added, the relaxivity increased to 5.3 mM^−1 s^−1 indicative of a q=1 complex (See FIG. 3, left). Similar studies were conducted using MgCl2 and CaCl2 to test for selectivity of the ligand for zinc over other dications known to have higher cellular concentrations and which have similar binding affinities for carboxylic acids. […] A competitive binding assay gave a dissociation constant of 2.38×10^−4 M for the Gd(III)-Zn(II) complex.
# NIH/3T3 cells [6] = assay: Cell cytotoxicity, trypan blue staining; format: cell-based; design: cell viability: dose or concentration left out as unconfirmed
# Experimental: as §1, §2
# [7] = Competitive binding assay with fluorophore FluoZin-1; conditions: competitive assay against FluoZin-1; read-out: dissociation constant (Kd) of the Gd(III)-Zn(II) complex
# Experimental: as §6, §4
# [8] = Relaxivity measurements in the absence and presence of ZnCl2; format: physicochemical
# Experimental: as §5, §6
# After 1 was left to equilibrate at 37° C. for 3 days with an excess of zinc, a relaxivity of 9.2 mM^−1 s^−1 was measured, indicating the species has a value of q=2. This measurement corresponds well to a structure proposed by embodiments of the present invention in which the pendant ligands have left the gadolinium for the zinc, leaving two open coordination sites for water to bind. […] Although an understanding of the mechanism is not necessary to practice the present invention and the present invention is not limited to any particular mechanism of action, in some embodiments, this is due to sequestration of Zn(II) by EDTA which leaves the carboxylic acids available to bind to Gd(III) and close the coordination sites (See FIG. 3, right). Adding excess EDTA had no effect on the relaxivity, providing that the Gd(III) ions are not sequestered by EDTA as expected given the high binding constant (˜10^16) for Gd-EDTA for which q=1.
# Proton relaxivity measurements on Compound 1 were also performed while titrating with increasing amounts of Zn(II) up to 1:1.4 (Gd: Zn) equivalents. […] The observed linear dependence also rules out the possibility of a 2:1 (Gd:Zn) complex formation.
# [9] = T1-weighted phantom MR images with Ca(II); conditions: 4.7 T magnet; 1 mM Compound 1 in HEPES, 1 mM CaCl2
# Experimental: as §3, §4
# [10] = T1-weighted phantom MR images with Zn(II)
# Experimental: as §3, §4
# [11] = Relaxivity measurements with CaCl2; format: physicochemical; conditions: CaCl2, even at 3-fold excess of the dication
# Experimental: as §5, §6
structure (smiles),measurement,setting,value
Cc1cccc(OCCN2CCN(CC(=O)[O-])CCN(CC(=O)[O-])CCN(CC(=O)[O-])CC2)c1N(CC(=O)[O-])CC(=O)[O-].[Gd+3] [second agent],activation towards Zn(II),[1],little activation
Cc1cccc(OCCCN2CCN(CC(=O)[O-])CCN(CC(=O)[O-])CCN(CC(=O)[O-])CC2)c1N(CC(=O)[O-])CC(=O)[O-].[Gd+3] [Compound 1],decrease in relaxivity (Gd dissociation/precipitation),"[2]; 0.1 M phosphate buffer, 24 hours",not seen
same,change in [Gd] of supernatant (ICP),"[2]; 0.1 M phosphate buffer, time-points up to 24 hours",no significant change
same,dissociation constant of the gadolinium complex,[2]; suggested from phosphate buffer stability,on the order of that seen for Gd-DO3A
same,uptake rate,NIH/3T3 cells [3]; first 8 hours of treatment,constant rate
same,maximal intracellular concentration,NIH/3T3 cells [3]; achieved at 8 hours and maintained up to 24 hours,approximately 10^−14 mol Gd/cell
same,MR image difference with Mg(II),[4],no discernible difference
same,change in relaxivity values,[5],no significant change
same,cell death,"NIH/3T3 cells [6]; 0.5 mM, up to 24 hours, trypan blue staining",no observable cell death
same,cell viability,NIH/3T3 cells [6]; 24 hours,greater than 99%
same,cell proliferation,NIH/3T3 cells [6]; incubation with Compound 1 up to 24 hours,Normal proliferation; also recorded: proliferated exponentially at the expected rate
same,pKd,[7],3.62
same,relaxivity,[8]; HEPES buffer without zinc,2.34 mM⁻¹ s⁻¹
same,relaxivity,"[8]; HEPES buffer, ZnCl2 added",5.3 mM⁻¹ s⁻¹
same,relaxivity,[8]; equilibrated at 37° C. for 3 days with an excess of zinc,9.2 mM⁻¹ s⁻¹
same,increase in relaxivity,[8]; in the presence of Zn(II),> 100%
same,MR image difference with Ca(II),[9],no discernible difference
same,MR image intensity in the presence of Zn(II),"[10]; 4.7 T magnet, 1 mM Compound 1 in HEPES, 1 mM ZnCl2",increase in intensity
same,levels of Zn(II) that can be detected,[10]; in vitro MR images,hundreds of micromolar
same,visualization of difference between 100 μM and 500 μM zinc,"[10]; phantom images, 1 mM Compound 1, varying zinc concentrations",easily visualize the difference
same,change in relaxivity values,[11],no significant change
